Results as given in patent publication US20210290644A1, “COMPOUNDS AND METHODS FOR TREATING FUNGAL INFECTIONS” (Amplyx Pharmaceuticals, Inc., priority 2018, published 2021).
Where “and” joins values, the source holds several entries; their conditions need not be identical. Equal values may be shown once.

Test: Study #1 Phase 1: plasma and urine pharmacokinetics of Compound 1 and Compound 1A after IV infusion of Compound 1 (SAD, MAD, loading regimen)
Settings: both, human, plasma; for Vd: Vz
[1] = 300 mg, Cohort 9: Compound 1 300 mg/3 hr IV QD × 14 days, Day 14, geometric mean
[2] = 600 mg, Cohort 10: Compound 1 600 mg/3 hr IV QD × 14 days, Day 14, geometric mean
[3] = 600 mg, Cohort 12 loading regimen: Compound 1 600 mg/1 hr IV QD, Day 7, geometric mean
[4] = 1000 mg, Cohort 11: Compound 1 1,000 mg/0.5 hr IV, single dose, geometric mean
[5] = 1000 mg, Cohort 11: Compound 1 1,000 mg/1 hr IV, single dose, geometric mean
[6] = 1000 mg, Cohort 11: Compound 1 1,000 mg/2 hr IV, single dose, geometric mean
[7] = 1000 mg, Cohort 11: Compound 1 1,000 mg/3 hr IV, single dose, geometric mean

Source text: This was a Phase 1, first-in-human, randomized, double-blind, placebo-controlled single ascending dose (SAD) and multiple ascending dose (MAD) escalation study of 120 healthy male and female subjects. The objectives of the study were to evaluate the safety, tolerability, and pharmacokinetics of single and multiple doses of Compound 1 administered by intravenous (IV) infusion.
In the single ascending dose (SAD) phase, Cohorts 1 to 6 and 11A to 11D received single doses. For Cohorts 11A to 11D, the infusion time varied from 0.5 to 3 hours to evaluate the relationship between C., and tolerability. In the multiple ascending dose (MAD) phase, Cohorts 7 to 10 received multiple doses over 14 days, and Cohort 12 examined the feasibility of a loading dose regimen.
Blood samples for the determination of Compound 1 and Compound 1A plasma concentrations were collected before and at appropriate times during all single- and multiple-dose administrations of Compound 1. For SAD Cohorts 1 to 6, urine samples for the determination of Compound 1A were collected through 48 hrs after dosing.
Eighty (80) subjects were enrolled into SAD Cohorts 1 to 6 and 11A to 11D. Within each cohort, six subjects were randomized to Compound 1 and two subjects to placebo. All 60 subjects randomized to Compound 1 completed dosing. Fifty-nine (59) subjects completed the study.
Forty (40) subjects were enrolled into MAD Cohorts 7 to 10 and Loading Dose Cohort 12. Within each cohort, six subjects were randomized to Compound 1 and two subjects to placebo.
The PK analysis population therefore consisted of 60 subjects in the SAD phase and 28 subjects in the MAD phase.

Compound: Nc1ncccc1-c1cc(Cc2ccc(COc3ccccn3)cc2)no1 [Compound 1A]
- AUC(0-t) (300 mg, AUC(0-24), Cohort 9: Compound 1 300 mg/3 hr IV QD × 14 days, Day 14, geometric mean): 118 µg·h/mL
- Cmax (300 mg, Cohort 9: Compound 1 300 mg/3 hr IV QD × 14 days, Day 1, geometric mean): 3690 ng/mL
- Cmax (300 mg, Cohort 9: Compound 1 300 mg/3 hr IV QD × 14 days, Day 7, geometric mean): 6650 ng/mL
- Cmax [1]: 7520 ng/mL
- Tmax (300 mg, Cohort 9: Compound 1 300 mg/3 hr IV QD × 14 days, Day 1, median): 3 h
- Tmax (300 mg, Cohort 9: Compound 1 300 mg/3 hr IV QD × 14 days, Day 7, median): 3 h
- Tmax (300 mg, Cohort 9: Compound 1 300 mg/3 hr IV QD × 14 days, Day 14, median): 3.02 h
- Vd [1]: 148 L and 2.22 L/kg
- Tmax (350 mg, Cohort 6: Compound 1 350 mg/3 hr IV, single dose, median): 3 h
- AUC(0-t) (600 mg, AUC(0-24), Cohort 10: Compound 1 600 mg/3 hr IV QD × 14 days, Day 1, geometric mean): 72.7 µg·h/mL
- AUC(0-t) (600 mg, AUC(0-24), Cohort 10: Compound 1 600 mg/3 hr IV QD × 14 days, Day 7, geometric mean): 217 µg·h/mL
- AUC(0-t) (600 mg, AUC(0-24), Cohort 10: Compound 1 600 mg/3 hr IV QD × 14 days, Day 14, geometric mean): 245 µg·h/mL
- AUC(0-t) (600 mg, AUC(0-24), Cohort 12 loading regimen: Compound 1 600 mg/1 hr IV QD, Day 4, geometric mean): 219 µg·h/mL
- AUC(0-t) (600 mg, AUC(0-24), Cohort 12 loading regimen: Compound 1 600 mg/1 hr IV QD, Day 7, geometric mean): 201 µg·h/mL
- Cmax (600 mg, Cohort 10: Compound 1 600 mg/3 hr IV QD × 14 days, Day 1, geometric mean): 7570 ng/mL
- Cmax (600 mg, Cohort 10: Compound 1 600 mg/3 hr IV QD × 14 days, Day 7, geometric mean): 14500 ng/mL
- Cmax [2]: 15400 ng/mL
- Cmax (600 mg, Cohort 12 loading regimen: Compound 1 600 mg/1 hr IV QD, Day 4, geometric mean): 17900 ng/mL
- Cmax [3]: 17700 ng/mL
- Tmax (600 mg, Cohort 10: Compound 1 600 mg/3 hr IV QD × 14 days, Day 1, median): 3 h
- Tmax (600 mg, Cohort 10: Compound 1 600 mg/3 hr IV QD × 14 days, Day 7, median): 3.03 h
- Tmax (600 mg, Cohort 10: Compound 1 600 mg/3 hr IV QD × 14 days, Day 14, median): 3 h
- Tmax (600 mg, Cohort 12 loading regimen: Compound 1 600 mg/1 hr IV QD, Day 4, median): 1 h
- Tmax (600 mg, Cohort 12 loading regimen: Compound 1 600 mg/1 hr IV QD, Day 7, median): 1 h
- Vd [2]: 175 L and 2.75 L/kg
- Vd [3]: 162 L and 2.27 L/kg
- AUC(0-t) (1000 mg, AUC(0-24), Cohort 11: Compound 1 1,000 mg/0.5 hr IV, single dose, geometric mean): 131 µg·h/mL
- AUC(0-t) (1000 mg, AUC(0-24), Cohort 11: Compound 1 1,000 mg/1 hr IV, single dose, geometric mean): 134 µg·h/mL
- AUC(0-t) (1000 mg, AUC(0-24), Cohort 11: Compound 1 1,000 mg/2 hr IV, single dose, geometric mean): 130 µg·h/mL
- AUC(0-t) (1000 mg, AUC(0-24), Cohort 11: Compound 1 1,000 mg/3 hr IV, single dose, geometric mean): 117 µg·h/mL
- AUC(0-t) (1000 mg, AUC(0-24), Cohort 12 loading regimen: Compound 1 1,000 mg/2 hr IV at 0 & 9 hr, Day 1, geometric mean): 211 µg·h/mL
- AUC(0-t) (1000 mg, AUC(0-t), Cohort 11: Compound 1 1,000 mg/1 hr IV, single dose, geometric mean): 481 µg·h/mL
- AUC(0-t) (1000 mg, AUC(0-t), Cohort 11: Compound 1 1,000 mg/2 hr IV, single dose, geometric mean): 476 µg·h/mL
- AUC(0-inf) [4]: 434 µg·h/mL
- AUC(0-inf) [5]: 536 µg·h/mL
- AUC(0-inf) [6]: 541 µg·h/mL
- AUC(0-inf) [7]: 400 µg·h/mL
- Cmax [4]: 24900 ng/mL
- Cmax [5]: 20100 ng/mL
- Cmax [6]: 15600 ng/mL
- Cmax [7]: 11900 ng/mL
- Cmax (1000 mg, Cohort 12 loading regimen: Compound 1 1,000 mg/2 hr IV at 0 & 9 hr, Day 1, geometric mean): 15700 ng/mL
- Tmax (1000 mg, Cohort 11: Compound 1 1,000 mg/0.5 hr IV, single dose, median): 0.52 h
- Tmax (1000 mg, Cohort 11: Compound 1 1,000 mg/1 hr IV, single dose, median): 1.02 h
- Tmax (1000 mg, Cohort 11: Compound 1 1,000 mg/2 hr IV, single dose, median): 2.02 h
- Tmax (1000 mg, Cohort 11: Compound 1 1,000 mg/3 hr IV, single dose, median): 3.02 h
- Tmax (1000 mg, Cohort 12 loading regimen: Compound 1 1,000 mg/2 hr IV at 0 & 9 hr, Day 1, median): 11 h
- Vd [4]: 141 L and 19.7 L/kg
- Vd [5]: 139 L and 2.11 L/kg
- Vd [6]: 153 L and 2.43 L/kg
- Vd [7]: 153 L and 2.02 L/kg
